The text below walks through data of PubChem BioAssay AID1549 (Sanford-Burnham Center for Chemical Genomics, 2009).

Usually Kd stands for the constant that tells how readily two partners part at equilibrium.

Activity calls are given as the source filed them. No rule for the calls is given here.

This assay addresses Influenza A virus M2 proton channel (A/TW/4845/1999 H1N1). Kind of assay: NMR binding screen, influenza A virus M2 proton channel, Kd (AID 1549). Particulars: M2 protein.
Take `Nc1ccc2nsnc2c1`: the Kd is > 4 mM (inactive).
For `Cc1nnc(NCc2cccnc2)[nH]c1=O` the value was > 4 mM (inactive).
With `Cc1nnc2sc(-c3csc4c3CCCC4)nn12`, the Kd was > 4 mM (inactive).
Under `CC(=O)Nc1ccc(S(=O)(=O)N2CCN=C2C)cc1` stands > 4 mM (inactive); under `Nc1ccc(-n2cccn2)cc1`, > 4 mM (inactive); under `COc1ccccc1NC(=O)C1CCC(=O)N1` (stereo not drawn), > 4 mM (inactive).
Under `Cc1ccccc1CSc1nncn1N` stands > 4 mM (inactive); under `Nc1ncnc(Nc2ccccc2C(F)(F)F)n1`, > 4 mM (inactive); under `NC(=O)c1cccc(N2C(=O)C=CC2=O)c1`, > 4 mM (inactive).
As for `C/C(O)=c1/sc2cc(C)nc(=N)n2c1=O`, the Kd was > 4 mM (inactive).
For `O=C(NCO)c1ccccc1Cl` the value was > 4 mM (inactive); for `CC(C)CCCC(C)C1CCC2C3CC(=O)[C@H]4C[C@@H](O)CC[C@]4(C)C3CC[C@]12C` (stereo partly drawn), > 4 mM (inactive); for `CCOC(=O)C1CCN(Cc2ccccc2)CC1`, > 4 mM (inactive).
Under `Nc1ncnc(NCc2cccnc2)c1[N+](=O)[O-]` stands > 4 mM (inactive); under `N#Cc1nc(-c2cccs2)oc1N1CCOCC1`, > 4 mM (inactive); under `O=C1CCCN1C(=O)CN1CCOCC1`, > 4 mM (inactive).
Under `COC1=CC(=O)C(O)=C/C1=C\C=C\c1ccccc1` stands > 4 mM (inactive).
Take `O=C(O)c1ccc(Nc2nncc(=O)[nH]2)cc1`: the Kd is > 4 mM (inactive).
For `COc1ccc2nc(N)sc2n1` the value was > 4 mM (inactive); for `Cc1ccc(S(C)(=O)=O)s1`, > 4 mM (inactive); for `CCOc1nc(C)ccc1-c1noc(-c2ccco2)n1`, > 4 mM (inactive).
For `O=C(Nc1ccccc1CO)c1ccccc1F` the value was > 4 mM (inactive).
Under `O=C(NC12CC3CC(CC(C3)C1)C2)c1cnccn1` stands > 4 mM (inactive).
Consider `O=C(O)C1CN2CCC1CC2` (stereo not drawn), for which the Kd was > 4 mM (inactive).
Under `Nc1n[nH]c(=S)n1-c1ccccc1` stands > 4 mM (inactive); under `NC(=O)C1CCN(C(=O)c2ccccc2)CC1`, > 4 mM (inactive); under `O=C(CC1SC(=O)NC1=O)Nc1nccs1` (stereo not drawn), > 4 mM (inactive).
Turning to `O=C(O)CNC(=O)c1ccc([N+](=O)[O-])cc1`, the Kd was > 4 mM (inactive).
With `COc1cc([C@@H]2c3cc4c(cc3[C@H](O)[C@H]3COC(=O)[C@@H]23)OCO4)cc(OC)c1OC`, the Kd was > 4 mM (inactive).
Turning to `O=C(Nc1cccnc1)c1ccc(Br)s1`, the Kd is > 4 mM (inactive).
For `Cc1ccccc1NC(=O)C1CC(=O)N=C(N)S1` (stereo not drawn) the value was > 4 mM (inactive); for `Cc1cc(NC(=O)c2ocnc2C)no1`, > 4 mM (inactive); for `CC(=O)CC1(O)C(=O)Nc2ccc(Br)cc21` (stereo not drawn), > 4 mM (inactive).
Under `Cc1ccc(C)n1CCN1CCNCC1` stands > 4 mM (inactive); under `Cc1cc(C)nc(/N=C(/N)Nc2cccc(F)c2)n1`, > 4 mM (inactive).
In the case of `O=S1(=O)CCC2CC=CCC21` (stereo not drawn), the Kd was > 4 mM (inactive).
Regarding `O/N=C1/CCCc2nonc21`, the Kd is > 4 mM (inactive).
Under `CC12CN([N+](=O)[O-])C3(C(N)=O)CC1CCC23C` (stereo not drawn) stands > 4 mM (inactive); under `c1ccc(NCc2nc(-c3ccccc3)no2)cc1`, > 4 mM (inactive); under `Cc1nn(C)c(Cl)c1C(O)c1c(C)nn(C)c1Cl`, > 4 mM (inactive).
For `C/C1=C\CCC(=O)C2CC(C)(C)C2CC1` (stereo not drawn) the value was > 4 mM (inactive); for `NC(=O)c1ccccc1N=Cc1ccco1`, > 4 mM (inactive); for `OCc1cc2ccccc2o1`, > 4 mM (inactive).
As for `CCOC(=O)Cc1cc(=O)n2[nH]c(C)cc2n1`, the Kd is > 4 mM (inactive).
In the case of `COC(=O)c1ccc(N2CCOCC2)nc1`, the Kd was > 4 mM (inactive).
Under `COc1ccc(/C=C2\SC(N)=NC2=O)cc1` stands > 4 mM (inactive); under `COc1ccc(/C=C2\NC(=S)N(C)C2=O)cc1O`, > 4 mM (inactive).
Under `Cc1occc1C(=O)Nc1cc(C(C)(C)C)on1` stands > 4 mM (inactive); under `COC(=O)C1=C(C)N(Cc2ccco2)C(=O)C1`, > 4 mM (inactive).
For `O=C1CCC(c2cccs2)=NN1`, the Kd is > 4 mM (inactive).
For `O=S(=O)(c1cccc(Cl)c1)N1CCCC1` the value was > 4 mM (inactive); for `C[n+]1ccn(C/C(N)=N/O)c1`, > 4 mM (inactive); for `Cc1n[nH]c(C)c1CC(=O)O`, > 4 mM (inactive).
Under `CN(Cc1nc2ccccc2n1C)S(C)(=O)=O` stands > 4 mM (inactive); under `NC(=O)C12CC3CC(C1)C(=O)C(C3)C2`, > 4 mM (inactive).
For `NCc1csc2ccccc12` the value was > 4 mM (inactive); for `Oc1cc(O)c2c(c1)O[C@H](c1ccc(O)c(O)c1)[C@H](O)C2`, > 4 mM (inactive); for `COc1ccc2c(c1)OC/C(=C\c1ccc(OC)c(O)c1)C2=O`, > 4 mM (inactive).
Turning to `O=C1CCCC(=O)N1c1ccc(O)cc1`, the Kd is > 4 mM (inactive).
Regarding `NC(=O)c1sc2ccccc2c1Cl`, the Kd was > 4 mM (inactive).
For `CCSc1nc(N)c(NC(=O)c2ccco2)c(=O)[nH]1` the value was > 4 mM (inactive).
As to `CCN1C[C@@]2(COC)C3[C@@H](OC)[C@H]4[C@@H]1[C@]3(C(OC)C[C@H]2O)C1C[C@@]2(O)[C@H](OC(=O)c3ccccc3)C1[C@]4(OC(C)=O)[C@@H](O)[C@@H]2OC` (stereo partly drawn), the Kd was > 4 mM (inactive).
As for `CCC(C)C(=O)c1c(O)c(C)c2oc3c(C)c(O)c(C(=O)C(C)CC)c(O)c3c2c1O` (stereo not drawn), the Kd is > 4 mM (inactive).
As to `Nc1cccnc1Oc1ccc(F)cc1F`, the Kd was > 4 mM (inactive).
Take `C(=C\c1ccccc1)/C=N/n1cnnc1`: the Kd is > 4 mM (inactive).
Under `O=C1CCC(=O)N1CN1CCOCC1` stands > 4 mM (inactive).
For `S=C(NCc1cccnc1)NC1CC1` the value was > 4 mM (inactive).
Under `COc1c(-c2coc3cc4c(cc3c2=O)CC(OC(C)=O)C(C)(C)O4)ccc2c1C=CC(C)(C)O2` (stereo not drawn) stands > 4 mM (inactive); under `O=C(c1ccccc1)c1ccccc1C(=O)N1CCCC1`, > 4 mM (inactive).
Consider `Cc1ccc(CCC(N)=O)o1`, for which the Kd was > 4 mM (inactive).
For `O=c1[nH]c2sc3c(c2c2nncn12)CCCC3` the value was > 4 mM (inactive).
For `C[C@@H]1O[C@@H](O[C@H]2[C@@H](Oc3cc(O)c4c(c3)O[C@H](c3ccc(O)cc3)CC4=O)O[C@H](CO)[C@@H](O)[C@@H]2O)[C@H](O)[C@H](O)[C@H]1O` the value was > 4 mM (inactive); for `NC1=NC(=O)C(Cc2cccc([N+](=O)[O-])c2)S1` (stereo not drawn), > 4 mM (inactive); for `O=C(O)C1=Cc2ccccc2OC1`, > 4 mM (inactive).
For `COc1ccc(-c2cc(=O)c3c(O)c(OC)c(O[C@H]4O[C@H](CO[C@@H]5O[C@@H](C)[C@H](O)[C@@H](O)[C@H]5O)[C@@H](O)[C@H](O)[C@H]4O)cc3o2)cc1` the value was > 4 mM (inactive).
Turning to `CC(C(N)=O)N1C(=O)c2ccccc2C1=O` (stereo not drawn), the Kd is > 4 mM (inactive).
For `O=C1CCC(=O)N1CNc1ccccc1` the value was > 4 mM (inactive); for `COc1ccc(CC(=O)c2ccc(O)cc2O)cc1`, > 4 mM (inactive); for `O=S1(=O)CCC(NC(=S)Nc2ccccn2)C1` (stereo not drawn), > 4 mM (inactive).
Under `O=C(NCC1CCCCC1)c1ccco1` stands > 4 mM (inactive).
For `COc1ccc(-c2cc(=O)c3c(O)cc(O[C@@H]4O[C@H](CO[C@H]5O[C@H](C)[C@@H](O)[C@H](O)[C@@H]5O)[C@@H](O)[C@H](O)[C@H]4O)cc3o2)cc1O` the value was > 4 mM (inactive); for `CC1CN=C(Nc2ccccc2)S1` (stereo not drawn), > 4 mM (inactive).
Turning to `COc1ccccc1NS(=O)(=O)c1c[nH]c(=O)[nH]c1=O`, the Kd is > 4 mM (inactive).
Under `Cc1cc(C)c2nncn2n1` stands > 4 mM (inactive); under `COc1cccc2onc(N)c12`, > 4 mM (inactive).
Take `COc1c2c(cc3occ(-c4ccc5c(c4)OCO5)c(=O)c13)OC(C)(C)C=C2`: the Kd was > 4 mM (inactive).
`OCCNc1ccccn1`: the Kd was > 4 mM (inactive).
Under `O=C(O)C(Cc1cnc[nH]1)N1C(=O)c2ccccc2C1=O` (stereo not drawn) stands > 4 mM (inactive); under `O=C(O)c1cc2ccccc2[nH]1`, > 4 mM (inactive).
Under `NC(=O)C1CCN(c2ncnc(N)c2[N+](=O)[O-])CC1` stands > 4 mM (inactive).
For `CCOC(=O)C1CCC(=O)c2cccn21` (stereo not drawn) the value was > 4 mM (inactive).
Take `O=C(NC1CCS(=O)(=O)C1)c1ccccc1` (stereo not drawn): the Kd was > 4 mM (inactive).
In the case of `NC(=O)CC1Nc2cccc3cccc(c23)NC1=O` (stereo not drawn), the Kd is > 4 mM (inactive).
Take `CSc1ccccc1NC(=O)c1cnccn1`: the Kd was > 4 mM (inactive).
For `O=c1c2c(nc3nc(COc4ccccc4)[nH]n13)CCC2` the value was > 4 mM (inactive).
For `NCc1ccc(S(=O)(=O)O)cc1` the value was > 4 mM (inactive); for `NC(=O)CSc1nc2ccccc2[nH]1`, > 4 mM (inactive); for `COC(=O)Nc1nc2c(s1)CCCC2`, > 4 mM (inactive).
Under `O=C(O)CSc1cccc2cccnc12` stands > 4 mM (inactive); under `OCc1ccc(N2CCOCC2)cc1`, > 4 mM (inactive).
Take `CN(C)c1ccc2c(=O)[nH][nH]c(=O)c2c1`: the Kd was > 4 mM (inactive).
Under `Nc1ccccc1C(=O)CC(N)C(=O)O` (stereo not drawn) stands > 4 mM (inactive).
Under `Nc1nc(-c2ccncc2)cs1` stands > 4 mM (inactive).
